These molecules were tested against IDH1 R132H (Homo sapiens, UniProt O75874, R132H) (assay: Assay for IDH1 R132H inhibitors (NADPH/aKG, resazurin detection)). Conditions: Table 3; enzyme assay, 50 minutes at room temperature; read-out: IC50 (IDH1 R132H Inhibition).
Type: biochemical
Method: Assays were conducted in a volume of 76 μl assay buffer (150 mM NaCl, 10 mM MgCl2, 20 mM Tris pH 7.5, 0.03% bovine serum albumin) as follows in a standard 384-well plate: To 25 ul of substrate mix (8 uM NADPH, 2 mM aKG), 1 μl of test compound was added in DMSO. The plate was centrifuged briefly, and then 25 μl of enzyme mix was added (0.2 μg/ml IDH1 R132H) followed by a brief centrifugation and shake at 100 RPM. The reaction was incubated for 50 minutes at room temperature, then 25 μl of detection mix (30 μM resazurin, […]) was added and the mixture further incubated for 5 minutes at room temperature. The conversion of resazurin to resorufin was detected by fluorescent spectroscopy at Ex544 Em590 c/o 590.

Sequence of IDH1 R132H (O75874 whole entry R132H): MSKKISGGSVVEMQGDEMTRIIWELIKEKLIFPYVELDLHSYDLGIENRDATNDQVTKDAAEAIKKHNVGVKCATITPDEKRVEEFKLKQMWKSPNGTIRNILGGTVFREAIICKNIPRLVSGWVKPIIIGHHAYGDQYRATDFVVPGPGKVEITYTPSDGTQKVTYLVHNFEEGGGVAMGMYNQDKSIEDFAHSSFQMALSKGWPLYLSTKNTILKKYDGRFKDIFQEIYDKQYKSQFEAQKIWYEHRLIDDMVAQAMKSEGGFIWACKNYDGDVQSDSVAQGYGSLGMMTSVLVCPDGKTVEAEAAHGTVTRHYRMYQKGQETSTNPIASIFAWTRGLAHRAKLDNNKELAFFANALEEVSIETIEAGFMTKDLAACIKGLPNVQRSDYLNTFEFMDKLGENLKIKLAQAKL

IC50 [µM]	Structure (SMILES)
≤ 1	COCCC(=O)N1CCN(c2nc(C3CC3)c(-c3ccc(F)cc3)c(C)c2C#N)C[C@H]1C [Compound 241, (R)-6-cyclopropyl-5-(4-fluorophenyl)-2-(4-(3-methoxypropanoyl)-3-methylpiperazin-1-yl)-4-methylnicotinonitrile]
1 to 5	COc1ccccc1-c1cc(C#N)c(N2CCN(C(=O)c3ccoc3)[C@H](C)C2)nc1C(C)C [Compound 175, (R)-2-(4-(furan-3-carbonyl)-3-methylpiperazin-1-yl)-6-isopropyl-5-(2-methoxyphenyl)nicotinonitrile]
1 to 5	CC(C)c1cc(-c2cccc(F)c2)c(C#N)c(N2CCN(C(=O)c3ccoc3)[C@H](C)C2)n1 [Compound 156]
5 to 15	CC(C)c1nc(N2C[C@@H](C)N(C(=O)c3ccoc3)[C@@H](C)C2)c(C#N)cc1-c1ccccc1 [Compound 141, 2-((3S,5R)-4-(furan-3-carbonyl)-3,5-dimethylpiperazin-1-yl)-6-isopropyl-5-phenylnicotinonitrile]
1 to 5	COCCC(=O)N1CCN(c2nc(C3CC3)c(-c3cccc(OC(F)(F)F)c3)cc2C#N)C[C@H]1C [Compound 228, (R)-6-cyclopropyl-2-(4-(3-methoxypropanoyl)-3-methylpiperazin-1-yl)-5-(3-(trifluoromethoxy)phenyl)-nicotinonitrile]
5 to 15	CC(C)c1nc(N2CCN(C(=O)c3ccoc3)CC2)c(C#N)cc1-c1ccccc1 [Compound 124, 2-(4-(furan-3-carbonyl)piperazin-1-yl)-6-isopropyl-5-phenylnicotinonitrile]
1 to 5	CC(C)c1nc(N2CCN(C(=O)c3ccoc3)C(C)C2)c(C#N)cc1-c1ccccc1 (centres unmarked) [Compound 120, 2-(4-(furan-3-carbonyl)-3-methylpiperazin-1-yl)-6-isopropyl-5-phenylnicotinonitrile]
5 to 15	CC1CN(c2nc(-c3ccccc3)c(-c3ccccc3)cc2C#N)CCN1C(=O)c1ccco1 (centres unmarked) [Compound 117, 2-(4-(furan-2-carbonyl)-3-methylpiperazin-1-yl)-5,6-diphenylnicotinonitrile]
1 to 5	Cc1occc1C(=O)N1CCN(c2nc(C(C)C)c(-c3ccc(C(F)(F)F)cc3)cc2C#N)C[C@H]1C [Compound 201, (R)-6-isopropyl-2-(3-methyl-4-(2-methylfuran-3-carbonyl)piperazin-1-yl)-5-(4-(trifluoromethyl)phenyl)-nicotinonitrile]

Same assay, conditions: enzyme assay of Example 12; read-out: IDH1R132H IC50

Structure (SMILES)	IC50 [µM]
COCCC(=O)N1CCN(c2nc(C3CC3)c(-c3cccc(S(C)(=O)=O)c3)c(C)c2C#N)C[C@H]1C [Compound 329, (R)-6-cyclopropyl-5-(3-methanesulfonyl-phenyl)-2-[4-(3-methoxy-propionyl)-3-methyl-piperazin-1-yl]-4-methyl-nicotinonitrile]	0.5 to 1
COCCC(=O)N1CCN(c2nc(C3CC3)c(-c3ccc4[nH]cc(C(=O)C(F)(F)F)c4c3)cc2C#N)C[C@H]1C [Compound 317, (R)-6-cyclopropyl-2-(4-(3-methoxypropanoyl)-3-methylpiperazin-1-yl)-5-(3-(2,2,2-trifluoroacetyl)-1H-indol-5-yl)nicotinonitrile]	0.5 to 1

Results, then the molecule that gave them:

IC50 [µM]	Structure (SMILES)
< 0.5	COCCC(=O)N1CCN(c2nc(C3CC3)c(-c3cnc(OC)c4ccccc34)cc2C#N)C[C@H]1C [Compound 474, (R)-6-cyclopropyl-5-(1-methoxy-isoquinolin-4-yl)-2-[4-(3-methoxy-propionyl)-3-methyl-piperazin-1-yl]-nicotinonitrile]
< 0.5	N#Cc1cc(Nc2ccnc(CO)c2)c(C2CC2)nc1N1CCN(C(=O)C[C@H]2CCO2)[C@H](C2CC2)C1 [Compound 824, 6-cyclopropyl-2-((R)-3-cyclopropyl-4-(2-((R)-oxetan-2-yl)acetyl)piperazin-1-yl)-5-((2-(hydroxymethyl)pyridin-4-yl)amino)nicotinonitrile]
< 0.5	COCCC(=O)N1CCN(c2nc(C3CC3)c(-c3ccc(C(=O)OC)cc3)cc2C#N)C[C@H]1C [Compound 665, (R)-methyl-4-(5-cyano-2-cyclopropyl-6-(4-(3-methoxypropanoyl)-3-methylpiperazin-1-yl)pyridin-3-yl)benzoate]
< 0.5	Cn1ncc(-c2cc(C#N)c(N3CCN(C(=O)C4CC4)[C@H](C4CC4)C3)nc2C2CC2)cc1=O [Compound 640, (R)-2-(4-(cyclopropanecarbonyl)-3-cyclopropylpiperazin-1-yl)-6-cyclopropyl-5-(1-methyl-6-oxo-1,6-dihydropyridazin-4-yl)nicotinonitrile]
0.5 to 1	COCCC(=O)N1CCN(c2nc(C3CC3)c(-c3csc(NC(=O)OC(C)(C)C)n3)cc2C#N)C[C@H]1C [Compound 395, (R)-(4-{5-cyano-2-cyclopropyl-6-[4-(3-methoxy-propionyl)-3-methyl-piperazin-1-yl]-pyridin-3-yl}-thiazol-2-yl)-carbamic acid tert-butyl ester]
0.5 to 1	CCOC(=O)[C@@H]1C[C@H]1C(=O)N1CCN(c2nc(C3CC3)c(-c3cccc4cnccc34)cc2C#N)C[C@H]1C [Compound 435, (1R,2R)-ethyl 2-((R)-4-(3-cyano-6-cyclopropyl-5-(isoquinolin-5-yl)pyridin-2-yl)-2-methylpiperazine-1-carbonyl)cyclopropanecarboxylate]
< 0.5	N#Cc1cc(-c2cncc(C(N)=O)c2)c(C2CC2)nc1N1CCN(C(=O)CC(F)(F)F)[C@H](C2CC2)C1 [Compound 540, (R)-5′-cyano-2′-cyclopropyl-6′-(3-cyclopropyl-4-(3,3,3-trifluoropropanoyl)piperazin-1-yl)-[3,3′-bipyridine]-5-carboxamide]
< 0.5	C=Cc1cc(-c2c(C3CC3)nc(N3CCN(C(=O)CCC4CC4)[C@H](C4CC4)C3)c(C#N)c2C)ccn1 [Compound 825, (R)-2-cyclopropyl-6-(3-cyclopropyl-4-(3-cyclopropylpropanoyl)piperazin-1-yl)-4-methyl-2′-vinyl-3,4′-bipyridine-5-carbonitrile]
< 0.5	CN(C)c1nccc(-c2cc(C#N)c(N3CCN(C(=O)CC(F)(F)F)[C@H](C4CC4)C3)nc2C2CC2)n1 [Compound 521, (R)-6-cyclopropyl-2-(3-cyclopropyl-4-(3,3,3-trifluoropropanoyl)piperazin-1-yl)-5-(2-(dimethylamino)pyrimidin-4-yl)nicotinonitrile]
0.5 to 1	N#Cc1cc(-c2ccnc(N)n2)c(C2CC2)nc1N1CCN(C(=O)C2CC2)[C@H](C2CC2)C1 [Compound 507, (R)-5-(2-aminopyrimidin-4-yl)-2-(4-(cyclopropanecarbonyl)-3-cyclopropylpiperazin-1-yl)-6-cyclopropylnicotinonitrile]
0.5 to 1	N#Cc1cc(-c2cccc3cnccc23)c(C2CC2)nc1N1CCN(C(=O)CC(F)(F)F)C(C(F)(F)F)C1 (centres unmarked) [Compound 399, 6-cyclopropyl-5-(isoquinolin-5-yl)-2-(3-(trifluoromethyl)-4-(3,3,3-trifluoropropanoyl)piperazin-1-yl)nicotinonitrile]
0.5 to 1	CSCn1cc(-c2cc(C#N)c(N3CCN(C(=O)C4CC4)[C@H](C4CC4)C3)nc2C2CC2)cn1 [Compound 510, (R)-2-(4-(cyclopropanecarbonyl)-3-cyclopropylpiperazin-1-yl)-6-cyclopropyl-5-(1-((methylthio)methyl)-1H-pyrazol-4-yl)nicotinonitrile]

— patent US9856279B2 (AGIOS PHARMACEUTICALS, INC, priority 2011, dated 2018)
